Results as given in patent US9593305B2, “Differentiation of pluripotent stem cells” (Janssen Biotech, Inc., priority 2008, dated 2017).

The molecules below were run on H1 human embryonic stem cells (assay: Step-wise differentiation, RT-PCR of differentiation markers (Example 12, Table 13)). Conditions: GDF-8 200 ng/ml with Wnt3a or 2.5 μM compound in step 1, versus activin A/Wnt3a.
Type: cell-based
Description: Stock cultures of human embryonic stem cells (H1 human embryonic stem cell line) were maintained in an undifferentiated, pluripotent state on reduced growth factor […]™-coated dishes in MEF conditioned medium with passage on average every four days. Passage was performed by exposing cell cultures to a solution of 1 mg/ml dispase (Invitrogen; Cat #17105-041) for 5 to 7 minutes at 37° C. followed by rinsing the monolayer with MEF conditioned culture medium and gentle scraping to recover cell clusters. Clusters were centrifuged at low speed to collect a cell pellet and remove residual dispase. Cell clusters were split at a 1:3 or 1:4 ratio for routine maintenance culture or a 1:1 ratio for immediate assay. All human ES cell lines were maintained at passage numbers less than 50 and routinely evaluated for normal karyotype and absence of mycoplasma.
Cell clusters were evenly resuspended in MEF conditioned medium supplemented with 8 ng/ml bFGF and seeded onto reduced growth factor […]™-coated 24-well, black wall culture plates (Arctic White; Cat #AWLS-303012) in volumes of 0.5 ml/well. Daily feeding was conducted by aspirating spent culture medium from each well and replacing with an equal volume of fresh medium. Plates were maintained at 37° C., 5% CO2 throughout the duration of assay.
The assay was initiated by aspirating the culture medium from each well and adding back an aliquot (0.5 ml) of test medium. Test conditions for the first step of differentiation were conducted over a three-day period, feeding daily by aspirating and replacing the medium from each well with fresh test medium. On the first day of assay, 100 ng/ml activin A (PeproTech; Cat #120-14) or 200 ng/ml GDF-8 (R&D Systems, Cat #788-G8) was added to respective assay wells where each growth factor was diluted into RPMI-1640 medium (Invitrogen; Cat #22400) with 1% Albumin Bovine Fraction V, Fatty Acid Free (FAF BSA) (MP Biomedicals, Inc; Cat 152401), 1% Probumin (Millipore; Cat #81-068-3) and 20 ng/ml Wnt3a (R&D Systems; Cat #1324-WN/CF). […]
For `O=C1CCN2CCN(CC2)Cc2cc(Cl)cc(c2)Nc2ncnc(n2)-c2cncc(c2)CCCN1` [Compound 34, 5-Chloro-1,8,10,12,16,22,26,32-octaazapentacyclo[24.2.2.1˜3.7˜0.1˜9,13˜0.1˜14.18˜]tritriaconta-3(33), 4,6,9(32), 10,12,14(31), 15,17-nonaen-23-one], the “expression levels of markers associated with endodermal and endocrine differentiation (PCR)” value was “similar, or in some instances, improved expression levels”.
“GDF-8: growth factor GDF-8, also known as myostatin, member of the TGF-β family” was tested, and the “expression levels of markers associated with endodermal and endocrine differentiation (PCR)” value was “similar, or in some instances, improved expression levels”.
`Cc1c[nH]c(-c2cnc(NCCNc3ccc(C#N)cn3)nc2-c2ccc(Cl)cc2Cl)n1` [Compound 56, 6-[(2-{[4-(2,4-Dichlorophenyl)-5-(4-methyl-1H-imidazol-2-yl)pyrimidin-2-yl]amino}ethyl)amino]pyridine-3-carbonitrile] was tested, and the “expression levels of markers associated with endodermal and endocrine differentiation (PCR)” value was “similar, or in some instances, improved expression levels”.
